Structures can show the parent of a compound that is named as a salt.

On to `CCC(CC)Oc1cc(C)nc2c1[nH]c(=O)n2-c1c(C)cc(C)cc1C` [Example 279, 7-(1-Ethyl-propoxy)-5-methyl-3-(2,4,6-trimethyl-phenyl)-1,3-dihydro-imidazo[4,5-b]pyridin-2-one], for which the melting point is 184 to 186 °C. As for `CCC(CC)Oc1cc(C)nc(Nc2c(C)cc(C)cc2C)c1` [Example 203, [4-(1-Ethyl-propoxy)-6-methyl-pyridin-2-yl]-(2,4,6-trimethyl-phenyl)-amine], the figure is 98 to 100 °C. `CCC(CC)Nc1cc(C)nc(Oc2c(C)cc(C)cc2C)c1CN` [Example 248, [3-Aminomethyl-6-methyl-2-(2,4,6-trimethyl-phenoxy)-pyridin-4-yl]-(1-ethyl-propyl)-amine] came in with a melting point of 117 to 119 °C. For the molecule `CCN(C)c1cc(C)nc(Oc2c(C)cc(C)cc2C)c1C` (as salt: HCl) [Example 74, [3,6-Dimethyl-2-(2,4,6-trimethyl-phenoxy)-pyridin-4-yl]-ethyl-methyl-amine], the melting point is 173 to 174 °C. The molecule `CCC(CC)Oc1cc(C)nc(Nc2c(C)cc(C)cc2C)c1CC(C(=O)OC)C(=O)OC` [Example 185, 2-[4-(1-Ethyl-propoxy)-6-methyl-2-(2,4,6-trimethyl-phenylamino)-pyridin-3-ylmethyl]-malonic acid dimethyl ester] displayed a melting point of 96 to 98 °C. The value for `CCC(CC)Nc1cc(C)nc2c1nc(N)n2-c1c(C)cc(C)cc1C` [Example 283, N7-(1-Ethyl-propyl)-5-methyl-3-(2,4,6-trimethyl-phenyl)-3H-imidazo[4,5-b]pyridine-2,7-diamine] was 158 to 160 °C; that for `CCC(CC)Nc1cc(C)nc(Oc2c(C)cc(Cl)cc2C)c1N` [Example 97, 2-(4-Chloro-2,6-dimethyl-phenoxy)-N4-(1-ethyl-propyl)-6-methyl-pyridine-3,4-diamine] was 72 to 74 °C; that for `Cc1cc(C)c(Oc2nc(C)cc(C(O)C(F)(F)F)c2C)c(C)c1` (stereo not drawn) [Example 212, 1-[3,6-Dimethyl-2-(2,4,6-trimethyl-phenoxy)-pyridin-4-yl]-2,2,2-trifluoro-ethanol] was 134 to 139 °C. For the molecule `CCC(CC)Oc1nc(C)nc(Nc2c(C)cc(C)cc2C)c1CO` [Example 274, [4-(1-Ethyl-propoxy)-2-methyl-6-(2,4,6-trimethyl-phenylamino)-pyrimidin-5-yl]-methanol], the melting point was in the range of 121 to 123 °C. For `CCC(CC)Nc1cc(C)nc(Sc2c(C)cc(C)cc2C)c1C` [Example 69, [3,6-Dimethyl-2-(2,4,6-trimethyl-phenylsulfanyl)-pyridin-4-yl]-(1-ethyl-propyl)-amine], the melting point is 108 to 110 °C. The value for `CCC(CC)Oc1cc(C)nc(Nc2c(C)cc(C)cc2C)c1CNC(=O)CCl` [Example 188, 2-Chloro-N-[4-(1-ethyl-propoxy)-6-methyl-2-(2,4,6-trimethyl-phenylamino)-pyridin-3-ylmethyl]-acetamide] was 142 to 144 °C; that for `CCC(CC)Oc1cc(C)nc(Oc2c(C)cc(C)cc2C)c1[N+](=O)[O-]` [Example 173, 4-(1-Ethyl-propoxy)-6-methyl-3-nitro-2-(2,4,6-trimethyl-phenoxy)-pyridine] was 106 to 109 °C. In turn, `CCC(COC)Nc1cc(C)nc(Oc2c(C=O)cccc2OC)c1[N+](=O)[O-]` (stereo not drawn) [Example 114, 3-Methoxy-2-[4-(1-methoxymethyl-propylamino)-6-methyl-3-nitro-pyridin-2-yloxy]-benzaldehyde] displayed a melting point of 126.5 to 130.5 °C.

For the molecule `CCC(CC)Nc1cc(C)nc(Oc2c(C)cc(C)cc2C)c1NC(C)=O` [Example 98, N-[4-(1-Ethyl-propylamino)-6-methyl-2-(2,4,6-trimethyl-phenoxy)-pyridin-3-yl]-acetamide], the melting point was 154 to 156 °C. As for `CCC(CC)Oc1cc(C)nc(Nc2c(C)cc(C)cc2C)c1CN(C)C.Cl`, the figure is 85 to 88 °C; as for `CCC(CC)Oc1cc(C)nc(Nc2c(C)cc(C)cc2C)c1C(=O)N(C)C` (as salt: HCl) [Example 193, 4-(1-Ethyl-propoxy)-6,N,N-trimethyl-2-(2,4,6-trimethyl-phenylamino)-nicotinamide], 197 to 200 °C.

The molecule `CCN(CC)c1cc(C)nc(Oc2c(C)cc(C)cc2C)c1C` (as salt: HCl) [Example 73, [3,6-dimethyl-2-(2,4,6-trimethyl-phenoxy)-pyridin-4-yl]-diethyl-amine] displayed a melting point of 180 to 181 °C. The value for `CCC(CC)Oc1cc(C)nc(Nc2c(C)cc(C)cc2C)c1NC(=O)CCl` [Example 237, 2-Chloro-N-[4-(1-ethyl-propoxy)-6-methyl-2-(2,4,6-trimethyl-phenylamino)-pyridin-3-yl]-acetamide] was 79 to 82 °C.

In turn, `C#CC(CC)Nc1cc(C)nc(Oc2c(C)cc(C)cc2C)c1C(=O)O` (stereo not drawn) [Example 140, 4-(1-Ethyl-prop-2-ynylamino)-6-methyl-2-(2,4,6-trimethyl-phenoxy)-nicotinic acid] yielded a melting point of 131 to 133 °C.

As for `CCCCN(CC)c1cc(C)nc(Oc2c(C)cc(Cl)cc2C)c1C` (as salt: HCl) [Example 76, Butyl-[2-(4-chloro-2,6-dimethyl-phenoxy)-3,6-dimethyl-pyridin-4-yl]-ethyl-amine], the melting point fell in the range of 177 to 178 °C.

`CCC(CC)Oc1nc(C)nc(Oc2c(C)cc(C)cc2C)c1C#N` [Example 35, 4-(1-Ethyl-propoxy)-2-methyl-6-(2,4,6-trimethyl-phenoxy)-pyrimidine-5-carbonitrile] came in with a melting point of 128 to 130 °C. The value for `CCC(CC)Oc1nc(C)nc(Nc2c(C)cc(C)cc2C)c1C(=O)O` [Example 273, 4-(1-Ethyl-propoxy)-2-methyl-6-(2,4,6-trimethyl-phenylamino)-pyrimidine-5-carboxylic acid] was 118 to 120 °C. On to `CCC(CC)Oc1nc(C)nc(Nc2c(C)cc(C)cc2C)c1C(N)=O` [Example 233, 4-(1-Ethyl-propoxy)-2-methyl-6-(2,4,6-trimethyl-phenylamino)-pyrimidine-5-carboxylic acid amide], for which the melting point was in the range of 174 to 176 °C. In turn, `CCC(CC)Oc1cc(C)nc(Nc2c(C)cc(C)cc2C)c1C(=O)n1ccnc1` [Example 183, [4-(1-Ethyl-propoxy)-6-methyl-2-(2,4,6-trimethyl-phenylamino)-pyridin-3-yl]-imidazol-1-yl-methanone] had a melting point of 120 to 122 °C. `CCOC(=S)SCc1c(OC(CC)CC)cc(C)nc1Nc1c(C)cc(C)cc1C` [Example 190, Dithiocarbonic acid O-ethyl ester S-[4-(1-ethyl-propoxy)-6-methyl-2-(2,4,6-trimethyl-phenylamino)-pyridin-3-ylmethyl] ester] showed a melting point of 55 to 57 °C. `CCC(O)C(CC)Nc1cc(C)nc(Oc2c(C)cc(Cl)cc2C)c1CO` (stereo not drawn) [Example 139, 4-[2-(4-Chloro-2,6-dimethyl-phenoxy)-3-hydroxymethyl-6-methyl-pyridin-4-ylamino]-hexan-3-ol] yielded a melting point of 145 to 148 °C.

`CCCN(CC)c1cc(C)nc(Oc2c(C)cc(Cl)cc2C)c1C` (as salt: HCl) [Example 77, [2-(4-chloro-2,6-dimethyl-phenoxy)-3,6-dimethyl-pyridin-4-yl]-ethyl-propyl-amine] showed a melting point of 74 to 76 °C. `CCN(CC)c1cc(C)nc(Oc2c(C)cc(Cl)cc2C)c1C` (as salt: HCl) [Example 78, [2-(4-chloro-2,6-dimethyl-phenoxy)-3,6-dimethyl-pyridin-4-yl]-diethyl-amine] had a melting point of 184 to 185 °C.

`CCC(CC)Oc1cc(C)nc(Oc2c(C)cc(COC)cc2C)c1C` [Example 67, 4-(1-Ethyl-propoxy)-2-(4-methoxymethyl-2,6-dimethyl-phenoxy)-3,6-dimethyl-pyridine]: the melting point was 58 to 60 °C. In turn, `CCCN(CC)c1cc(C)nc(Oc2c(C)cc(C)cc2C)c1C` (as salt: HCl) [Example 72, [3,6-Dimethyl-2-(2,4,6-trimethyl-phenoxy)-pyridin-4-yl]-ethyl-propyl-amine] had a melting point of 167 to 169 °C. On to `CCC(COC)Nc1cc(C)nc(Oc2c(OC)cc(OC)cc2OC)c1[N+](=O)[O-]` (stereo not drawn) [Example 114, (1-Methoxymethyl-propyl)-[6-methyl-3-nitro-2-(2,4,6-trimethoxy-phenoxy)-pyridin-4-yl]-amine], for which the melting point is 126.8 to 129.5 °C. The molecule `CCNc1cc(C)nc(Sc2c(C)cc(C)cc2C)c1C` [Example 71, [3,6-dimethyl-2-(2,4,6-trimethyl-phenylsulfanyl)-pyridin-4-yl]-ethyl-amine] registered a melting point of 114 to 116 °C.

Consider `CCC(Nc1cc(C)nc(Oc2c(C)cc(Cl)cc2C)c1CO)C(C)O` (stereo not drawn) [Example 138, 3-[2-(4-Chloro-2,6-dimethyl-phenoxy)-3-hydroxymethyl-6-methyl-pyridin-4-ylamino]-pentan-2-ol], for which the melting point was 180 to 182 °C. The value for `CCC(CC)Nc1cc(C)nc(Nc2c(C)cc(C)cc2C)c1C(N)=O` [Example 232, 4-(1-Ethyl-propylamino)-6-methyl-2-(2,4,6-trimethyl-phenylamino)-nicotinamide] was 204 to 206 °C; that for `CCC(CC)Oc1cc(C)nc2c1n(C)c(=O)n2-c1c(C)cc(C)cc1C` [Example 280, 7-(1-Ethyl-propoxy)-1,5-dimethyl-3-(2,4,6-trimethyl-phenyl)-1,3-dihydro-imidazo[4,5-b]pyridin-2-one] was 151 to 153 °C.

`CCC(CC)Nc1cc(C)nc2c1nc(C)n2-c1c(C)cc(C)cc1C` [Example 282, [2,5-Dimethyl-3-(2,4,6-trimethyl-phenyl)-3H-imidazo[4,5-b]pyridin-7-yl]-(1-ethyl-propyl)-amine] displayed a melting point of 101 to 103 °C.

(Values after patent publication US6956047B1, “Corticotropin releasing factor antagonists” (Pfizer Inc., priority 1995, dated 2005).)
